This is an account of results in ChEMBL document CHEMBL3739307, “Synthesis and multiparametric evaluation of thiadiazoles and oxadiazoles as diacylglycerol acyltransferase type 1 inhibitors” (Bioorg Med Chem Lett, 2016).

Structures are written as SMILES.

The subject of data set [1] is Liver microsome. Put plainly: Metabolic stability in rat liver microsomes. Type of data set: ADME. Background: Microsomes from liver hold many membrane-bound enzymes, among them those of drug oxidation.
Data set [2] concerns Liver microsome. As to the kind of experiment: Metabolic stability in human liver microsomes. Type of data set: ADME.
Data set [3] is described as follows: Metabolic stability in mouse liver microsomes. Type of data set: ADME.
Data set [4] in a line: Permeability across human Caco2 cells. Format: ADME, cell-based. The following applies: Caco-2, read-out: permeability. On the technique in general: Caco-2 cells form a polarised layer with tight junctions and transporters.
Data set [5] is described as follows: Cmax in rat small intestine at 10 mg/kg, po administered as single dose. On the set-up: dose 10 mg/kg, route oral. Type of data set: ADME, organism-based.
Data set [6] in a line: Cmax in rat plasma at 10 mg/kg, po administered as single dose. Type of data set: ADME, organism-based. On the set-up: dose 10 mg/kg, route oral.
The nature of data set [7]: Half life in rat plasma at 10 mg/kg, po administered as single dose. Format: ADME, organism-based.
Data set [8] is described as follows: Cmax in rat heart at 10 mg/kg, po administered as single dose. On the set-up: dose 10 mg/kg, route oral. Type of data set: ADME, organism-based.
The nature of data set [9]: Oral bioavailability in rat. Type of data set: ADME, organism-based. The following applies: in vivo.
The nature of data set [10]: Cmax in rat brain at 10 mg/kg, po administered as single dose. Type of data set: ADME, organism-based. On the set-up: dose 10 mg/kg, route oral.
A short description of data set [11]: Tmax in rat at 10 mg/kg, po administered as single dose. Type of data set: ADME, organism-based. The note with it: in vivo.
A short description of data set [12]: Cmax in rat liver at 10 mg/kg, po administered as single dose. Type of data set: ADME, organism-based. On the set-up: dose 10 mg/kg, route oral.

In the case of `O=C(Nc1nnc(Cc2cc(F)cc(F)c2)s1)c1ccc(O[C@H]2CC[C@H](C(=O)O)CC2)cc1`, the figures for the Stability (in the data set with Liver microsome [1]; with Liver microsome [2]; in data set [3]) were 8%, 1% and 9%, respectively. Also, the Papp in data set [4] was determined as 3 ×10⁻⁶ cm/s.

Consider `O=C(Nc1nnc(Cc2ccccc2)s1)c1ccc(O[C@H]2CC[C@@H](C(=O)O)CC2)cc1`, for which the Stability with Liver microsome [1] was found to be 22%; with Liver microsome [2] it was 3%; in data set [3], 27%. For the same compound, the Papp in [4] is 1.5 ×10⁻⁶ cm/s.

On to `O=C(Nc1nc(Cc2cc(F)cc(F)c2)no1)c1ccc(O[C@H]2CC[C@@H](C(=O)O)CC2)cc1`, for which the Stability in the data set with Liver microsome [1] worked out at 61%; in the data set with Liver microsome [2] it was 1%; in data set [3], 99%. The Papp in data set [4] was determined as 0.9 ×10⁻⁶ cm/s.

For `O=C(Nc1nnc(Cc2cccc(Cl)c2)s1)c1ccc(O[C@H]2CC[C@@H](C(=O)O)CC2)nc1`, the Stability with Liver microsome [1] amounted to 27%; in the data set with Liver microsome [2], 2%; in [3], 56%. In data set [4], the Papp amounted to 1.7 ×10⁻⁶ cm/s.

`O=C(O)C[C@H]1CC[C@H](c2ccc(C(=O)Nc3nnc(Cc4ccccc4)s3)cc2)CC1`: the figures for the Stability (with Liver microsome [1]; in the data set with Liver microsome [2]; in [3]) were 11%, 0% and 5%, respectively.

As to `O=C(Nc1nnc(NC2CCCC2)s1)c1ccc(O[C@H]2CC[C@@H](C(=O)O)CC2)cc1`, the Stability in the data set on Liver microsome [1] came out at 4%; with Liver microsome [2] it was 2%; in data set [3] it was 3%. In addition, the Papp in data set [4] came to 0.6 ×10⁻⁶ cm/s.

For the compound `NCCCC[C@H](N)C(=O)O.O=C(Nc1nnc(Cc2cc(F)cc(F)c2)s1)c1ccc(O[C@H]2CC[C@@H](C(=O)O)CC2)cc1`, the Cmax (as a rule, the highest concentration seen after dosing) came to 14.3 µM in data set [5]; 13.2 µM in [6]; 4.2 µM in data set [8]; 0.16 µM in [10]; 248 µM in [12]. For the same compound, the half-life (in general, how long it takes for the measured level to halve) in [7] was 7.4 h. Also, the bioavailability (in general, the share of a dose that reaches the circulation, judged against a reference dose that is usually intravenous) in data set [9] worked out at 40%. For the same compound, the Tmax (in general, the time at which the peak concentration occurs) in data set [11] came to 4 h.

For `O=C(Nc1nnc(Cc2cc(F)cc(F)c2)s1)c1ccc(O[C@H]2CC[C@@H](C(=O)O)CC2)cc1`, in [9], the bioavailability stood at 4%. Further, the Stability in the data set with Liver microsome [1] was 9%; in the data set with Liver microsome [2], 1%; in data set [3], 42%. Also, the Papp in data set [4] is 2.9 ×10⁻⁶ cm/s.

Consider `O=C(O)C[C@H]1CC[C@H](c2ccc(C(=O)Nc3nnc(COC4CCCC4)s3)cc2)CC1`, for which the Stability was 0% with Liver microsome [1], 3% with Liver microsome [2] and 0% in [3]. Besides, the Papp in data set [4] came out at 10.3 ×10⁻⁶ cm/s.

Regarding `O=C(Nc1nnc(COC2CCCC2)s1)c1ccc(O[C@H]2CC[C@@H](C(=O)O)CC2)cc1`, the Stability in the data set on Liver microsome [1] is 1%; in the data set with Liver microsome [2] it was 5%; in data set [3], 8%. Further, the Papp in [4] was determined as 4.1 ×10⁻⁶ cm/s.

As to `O=C(Nc1nc(Cc2ccccc2)no1)c1ccc(O[C@H]2CC[C@@H](C(=O)O)CC2)cc1`, the Stability in the data set with Liver microsome [1] was determined as 53%; in the data set with Liver microsome [2], 2%; in data set [3], 100%. In addition, the Papp in data set [4] amounted to 2.9 ×10⁻⁶ cm/s.

As to `O=C(Nc1nnc(Nc2ccccc2)s1)c1ccc(O[C@H]2CC[C@@H](C(=O)O)CC2)cc1`, the figures for the Stability (in the data set with Liver microsome [1]; in the data set on Liver microsome [2]; in data set [3]) were 4%, 11% and 8%, respectively. Moreover, the Papp in data set [4] amounted to 0.6 ×10⁻⁶ cm/s.

With `O=C(O)C[C@H]1CC[C@H](c2ccc(C(=O)Nc3nnc(CCC4CCCO4)s3)cc2)CC1` (stereo not given in full), the Stability is reported as 3% in the data set on Liver microsome [1], 9% in the data set on Liver microsome [2] and 8% in data set [3]. Further, the Papp in [4] is 7.2 ×10⁻⁶ cm/s.

In the case of `O=C(Nc1nnc(Cc2ccccc2)s1)c1ccc(O[C@H]2CC[C@@H](C(=O)O)CC2)nc1`, the Stability with Liver microsome [1] worked out at 37%; with Liver microsome [2] it was 1%; in data set [3] it was 23%. In data set [4], the Papp amounted to 1.1 ×10⁻⁶ cm/s.
